Tests used:
[1] = Solubility as observed in the enzyme inhibition assays; assay type: physicochemical; set-up: key to solubility (footnote b): -: The compound was not soluble; conditions: for solubility (footnote b): CK inhibition assay at 10 and 30 µM
A549 = assay: Antiproliferative activity, resazurin assay, 72 h; assay type: cell-based, human
Method: (§1) Human cervix carcinoma (HeLa), Non-small lung adenocarcinoma (A549), Colon adenocarcinoma (HT29), and human triple negative breast cancer (MDA-MB-231) were cultured in Dulbecco’s modified Eagle’s media (DMEM). B-acute lymphoblastic leukemia (RS4;11 and SEM), T-acute lymphoblastic leukemia (Jurkat), and human promyelocytic cells (HL-60), were cultured in RPMI-1640 medium. Both media were purchased from Gibco, Life Technologies (Milan, Italy) and supplemented with 10% Fetal Bovine Serum (FBS, Invitrogen, Milan, Italy,). Every six months, each cell line was checked for the presence of mycoplasma by RT-PCR.
(§2) Stock solutions (10 mM) of the different compounds were made in DMSO. Cancer cells were seeded in tissue-treated, flat bottom, 384-well plates (Corning) according to their optimal density, (A549 1000 cells/wells; MDA-MB-231, HeLa and HT-29 2000 cells/well and finally Jurkat, HL-60 SEM and RS4;11 20.000 cells/well) in 27 µL of complete medium per well.
(§3) The day after cell seeding and immediately before cell treatment, 10 mM stock solutions of the compounds were pre-diluted to a […] concentration in 250 µL of Hank’s in a 96-well plate (Corning). Subsequent 1:5 dilutions were carried out using a microlab STAR 96-CORE liquid handling system (Hamilton), a robotized liquid handling tool that was employed for all steps, from cell seeding to drug dilution and cell treatment to ensure high reproducibility while reducing time for large screening execution. This pre-dilution step was necessary to avoid DMSO-related cytotoxicity and compound precipitation in the cell culture medium. In every case, DMSO concentration never exceeded 0.1%.
(§4) Positive (Bortezomib 1 µM) and negative (0.1% DMSO) controls were included in all the screened plates to allow for monitoring the Z’ factor throughout the entire screening. Cells were treated with 3 µL of the previously made dilutions; thus, generating a 6-point 5-fold dose–response curve starting from 10 µM. Within a plate, each drug concentration was tested in duplicate in two independent experiments for each compound.
(§5) Treated cells were then placed inside the CO2 incubator for 72 h at 37 °C. Cell viability was assessed by resazurin assay, in which 3 µL of resazurin per well were added using the previously described automated platform. Plates were placed in the incubator at 37 °C for 2 h, and then the fluorescence of each plate was read using a Spark 10 M multimode microplate reader (Tecan Group Ltd., Mannedorf, Switzerland) with 535 nm excitation wavelength and 600 nm emission wavelength.

MDA-MB-231 = assay: Antiproliferative activity, resazurin assay, 72 h; assay type: cell-based, human
Method: as §1, §2, §3, §4, §5

Jurkat = assay: Antiproliferative activity, resazurin assay, 72 h; assay type: cell-based, human
Method: as §1, §2, §3, §4, §5

SEM cells = assay: Antiproliferative activity, resazurin assay, 72 h; assay type: cell-based, human
Method: as §1, §2, §3, §4, §5

HT29 = assay: Antiproliferative activity, resazurin assay, 72 h; assay type: cell-based, human
Method: as §1, §2, §3, §4, §5

HL-60 = assay: Antiproliferative activity, resazurin assay, 72 h; assay type: cell-based, human
Method: as §1, §2, §3, §4, §5

HeLa = assay: Antiproliferative activity, resazurin assay, 72 h; assay type: cell-based, human
Method: as §1, §2, §3, §4, §5

RS 4;11 = assay: Antiproliferative activity, resazurin assay, 72 h; assay type: cell-based, human
Method: as §1, §2, §3, §4, §5

CKα1 = target: T1, CKα1 (Homo sapiens, UniProt P35790); assay: Choline kinase assay ([methyl-14C]choline into PCho, purified enzyme); assay type: biochemical; conditions: for IC50: concentration required to inhibit CKα1 enzyme by 50%; for % Inhibition at 10 µM: purified CKα1, inhibitor 10 µM; for % Inhibition at 10 µM / % Inhibition at 30 µM: end-point assay; for % Inhibition at 30 µM: purified CKα1, inhibitor 30 µM
T1 construct: an N-terminally His-tagged truncated form of CKα1 (Δ75–457) was cloned into a pET-28a vector; His tag (N); made in house; host or cells: E. coli BL21 (DE3) Star
T1 sequence (P35790 75-457): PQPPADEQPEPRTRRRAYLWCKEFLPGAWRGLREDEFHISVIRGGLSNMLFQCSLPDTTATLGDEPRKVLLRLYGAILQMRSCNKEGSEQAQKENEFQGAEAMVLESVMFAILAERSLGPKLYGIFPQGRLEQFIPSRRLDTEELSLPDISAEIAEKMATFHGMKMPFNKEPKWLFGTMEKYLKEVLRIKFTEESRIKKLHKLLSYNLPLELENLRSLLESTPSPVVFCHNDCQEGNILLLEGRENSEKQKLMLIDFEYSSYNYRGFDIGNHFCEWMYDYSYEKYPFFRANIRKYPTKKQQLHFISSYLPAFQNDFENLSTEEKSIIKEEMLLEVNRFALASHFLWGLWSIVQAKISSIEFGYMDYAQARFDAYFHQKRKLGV
Method: The protein was produced and purified as previously described. Briefly, an N-terminally His-tagged truncated form of CKα1 (Δ75–457) was cloned into a pET-28a vector and expressed at 37 °C in E. coli BL21 (DE3) Star cells using 1 mM isopropyl β-D-1-thiogalactopyranoside (IPTG). After centrifugation, the cellular pellet was resuspended in 50 mM Tris-HCl pH 7.5, 500 mM NaCl, 0.2 mM phenylmethylsulphonyl fluoride (PMSF), DNase, and 0.5 mM β-mercaptoethanol, sonicated and subjected to a two-step purification procedure to isolate the target enzyme. […] Protein elution was completed using buffer A + 400 mM imidazole. A second size-exclusion chromatography step was then carried out to achieve complete purity. To this end, we used a HiPrep 26/60 Sephacryl 100 HR column (GE Healthcare, Little Chalfont, Buckinghamshire, UK) and a 20 mM Tris/HCl pH 7.5, 150 mM NaCl running buffer.
To study the effect of the compounds on CKα, an in vitro enzymatic assay was performed using the purified enzyme as previously reported in [19, 28, 29]. Briefly, the incorporation of ^14C from [methyl-^14C]choline into PCho in either the absence (control) or presence of different inhibitors at varying concentrations was used to determine the CK activity. The reaction mixture included 20 ng of purified CKα1, 10 mM ATP, 10 mM MgCl2, 100 mM Tris-HCl pH 8.5, and increasing concentrations of compounds. The mixture was preincubated at 37 °C for 5 min. Then, [methyl-^14C]choline chloride (1 mM, 4500 dpm/nmol) was added and the reaction was left to proceed for 10 min at 37 °C. The assay was stopped by immersing the reaction tubes in boiling water. PCho was separated by Thin Layer Chromatography using methanol/0.6% NaCl/28% NH4OH in water (50:50:5, v/v/v) as solvent. The radioactivity associated into PCho was determined in a Beckman 6000-TA (Madrid, Spain) liquid scintillation counter. The 50% inhibitory concentrations (IC50 values) were determined from the % enzyme activity at different concentrations of synthetic inhibitors relative to the control by using a sigmoidal dose–response curve (ED50plus v1.0 software).

Structure (SMILES)	solubility (footnote b) [1]	GI50 (A549) [nM]	GI50 (MDA-MB-231) [nM]	GI50 (Jurkat) [µM]	GI50 (SEM cells) [µM]	GI50 (HT29) [nM]	GI50 (HL-60) [nM]	GI50 (HeLa) [nM]	GI50 (RS 4;11) [nM]	IC50 (CKα1) [nM]	% Inhibition at 10 µM (CKα1) [%]	% Inhibition at 30 µM (CKα1) [%]	solubility (in words) ([1]; IC50 could not be determined)	IC50 (CKα1; listed as Fa-34) [nM]
[Br-].[Br-].c1cc2c(N3CCCCCC3)nc[n+](Cc3ccc(-c4ccc(C[n+]5cnc(N6CCCCCC6)c6ccsc65)cc4)cc3)c2s1 [Fg-18]	- ^b	210 ± 10	610 ± 30	7.04 ± 0.8	> 10	2320 ± 20	790 ± 20	1810 ± 20	2650 ± 40					
[Br-].[Br-].c1cc2c(s1)c(N1CCCCC1)nc[n+]2Cc1ccc(-c2ccc(C[n+]3cnc(N4CCCCC4)c4sccc43)cc2)cc1 [Fa-24]		1170 ± 200	700 ± 70	> 10	> 10	> 10000	7280 ± 1100	7080 ± 1300	> 10000	2330 ± 210	84.64	98.40		
[Br-].[Br-].c1cc2c(N3CCCCCC3)nc[n+](Cc3ccc(CCCCc4ccc(C[n+]5cnc(N6CCCCCC6)c6ccsc65)cc4)cc3)c2s1 [Ff-35, ((1,1′-((butane-1,4-diylbis(4,1-phenylene))bis(methylene))bis(4-(azepan-1-yl)thieno[2,3-d]pyrimidin-1-ium)) bromide]		140 ± 20	97 ± 1	1.54 ± 0.02	0.76 ± 0.03	780 ± 30	150 ± 10	300 ± 10	950 ± 50	460 ± 80				
[Br-].[Br-].c1cc2c(s1)c(N1CCCC1)nc[n+]2Cc1ccc(CCc2ccc(C[n+]3cnc(N4CCCC4)c4sccc43)cc2)cc1 [Fg-16]		250 ± 20	380 ± 10	> 10	> 10	2640 ± 60	210 ± 30	670 ± 20	7270 ± 800	1810 ± 170	80.28	85.87		
[Br-].[Br-].c1cc2c(s1)c(N1CCCCC1)nc[n+]2Cc1ccc(CCc2ccc(C[n+]3cnc(N4CCCCC4)c4sccc43)cc2)cc1 [Fa-25]	- ^b	280 ± 20	330 ± 20	5.48 ± 0.5	2.53 ± 0.03	1470 ± 60	140 ± 10	620 ± 20	1840 ± 100				insolubility	
[Br-].[Br-].c1cc2c(N3CCCC3)nc[n+](Cc3ccc(CCc4ccc(C[n+]5cnc(N6CCCC6)c6ccsc65)cc4)cc3)c2s1 [Fg-15]		220 ± 30	260 ± 20	> 10	> 10	2010 ± 30	130 ± 10	1000 ± 100	3710 ± 40	≥ 5000	71.11	81.29		
[Br-].[Br-].c1cc2c(N3CCCCC3)nc[n+](Cc3ccc(OCCOc4ccc(C[n+]5cnc(N6CCCCC6)c6ccsc65)cc4)cc3)c2s1 [Ff-5]		340 ± 60	1100 ± 200	> 10	3.27 ± 0.03	1730 ± 300	200 ± 10	1030 ± 100	2450 ± 20	≥ 5000	64.21	85.71		
CN(c1ccccc1)c1nc[n+](Cc2ccc(-c3ccc(C[n+]4cnc(N(C)c5ccccc5)c5sccc54)cc3)cc2)c2ccsc12 [Fp-1]		210 ± 20	900 ± 20	> 10	4.55 ± 0.5	1430 ± 30	510 ± 50	1660 ± 10	2120 ± 200	1060 ± 220				
[Br-].[Br-].c1cc2c(s1)c(N1CCCC1)nc[n+]2Cc1ccc(OCCOc2ccc(C[n+]3cnc(N4CCCC4)c4sccc43)cc2)cc1 [Ff-8]		290 ± 300	320 ± 50	> 10	> 10	1890 ± 200	550 ± 20	910 ± 90	3470 ± 300		79.23	92.88		
[Br-].[Br-].c1cc2c(s1)c(N1CCCC1)cc[n+]2Cc1ccc(CCCCc2ccc(C[n+]3ccc(N4CCCC4)c4sccc43)cc2)cc1 [Ff-1]		970 ± 20	1230 ± 10	4.13 ± 0.4	3.07 ± 0.3	3320 ± 30	790 ± 50	1900 ± 10	7900 ± 1300	1540 ± 170	82.15	90.83		
[Br-].[Br-].c1cc2c(s1)c(N1CCCC1)cc[n+]2Cc1ccc(CCc2ccc(C[n+]3ccc(N4CCCC4)c4sccc43)cc2)cc1 [Fg-11]		390 ± 40	680 ± 70	8.53 ± 1.1	> 10	3650 ± 500	470 ± 30	2190 ± 300	5720 ± 500	2330 ± 200	93.07	94.25		
[Br-].[Br-].c1cc2c(N3CCCC3)nc[n+](Cc3ccc(-c4ccc(C[n+]5cnc(N6CCCC6)c6ccsc65)cc4)cc3)c2s1 [Fg-14]		280 ± 20	940 ± 90	> 10	> 10	4160 ± 1000	1350 ± 100	2530 ± 800	> 10000	4870 ± 570	80.28	94.14		
[Br-].[Br-].c1cc2c(s1)c(N1CCCCC1)nc[n+]2Cc1ccc(OCCOc2ccc(C[n+]3cnc(N4CCCCC4)c4sccc43)cc2)cc1 [Fa-28]		290 ± 20	190 ± 10	> 10	2.41 ± 0.04	> 10000	350 ± 10	590 ± 20	2320 ± 30	3250 ± 540	87.69	92.19		
[Br-].[Br-].c1cc2c(s1)c(N1CCCCCC1)nc[n+]2Cc1ccc(OCCOc2ccc(C[n+]3cnc(N4CCCCCC4)c4sccc43)cc2)cc1 [Ff-34]		290 ± 30	910 ± 80	6.1 ± 1.1	2.5 ± 0.1	1630 ± 100	270 ± 10	930 ± 10	1800 ± 100	700 ± 30	94.31	99.02		704

Reference: paper PMC9032693, “Biological Evaluation of New Thienopyridinium and Thienopyrimidinium Derivatives as Human Choline Kinase Inhibitors” (Pharmaceutics, 2022)
